This note sets out measurements from US20160113890A1, “COMPOSITION FOR STIMULATING NEOVASCULARIZATION AT A SITE IN A SUBJECT COMPRISING DAPSONE AND USE THEREOF” (Samsung Electronics Co., Ltd., priority 2014, published 2016).

Experiment [1] concerns C57BL/6 mice. The experiment in a line: Immunohistochemical assay (anti-PECAM-1) on mouse ear skin whole-mount. Format: in vivo. As to the method:
(§1) C57BL/6 mice (hereinafter, also referred to as “B6”) at ages of 7 months and 24 months (female n=18, male n=12, Korean Basic Science Institute) were maintained according to the guideline of the Laboratory Animal Research Center of Sungkyunkwan University School of Medicine. The mice were allowed to have free access to water and feed. Each group of mice (n=5) drank 0.0, 0.5, or 2.0 mg/kg/day of dapsone (available from Tai Guk Pharm. Co.) for 3 months.
After 3 months, ear skin from both ears, trachea, both retinas, both kidneys, and pancreas were obtained from a mouse selected from each group of mice. In order to obtain these organs, the mouse was anesthetized by intraperitoneal injection of 100 mg/kg of […] (Entobal®) based on the weight of the mouse, […] of 1% paraformaldehyde was flowed through the heart to remove the blood in the body of the mouse. The organs were surgically obtained, and tissue from each of the organs was fixed in 4% of paraformaldehyde for 24 hours to prepare a frozen section having a thickness of 10 um. Immunofluorescence staining using anti-PECAM-1 antibody was performed on a sample of the frozen section. For the immunofluorescence staining, the sample was blocked in a solution containing 5% donkey serum in phosphate buffered solution (PBS) containing 0.3% Triton-X 100 (0.3% PBST) for 1 hour. The anti-PECAM-1 antibody produced from American hamster was added to the solution to allow a primary reaction with antigen of the tissue at 4° C. for 12 hours. The sample was washed 6 times for 10 minutes with 0.3% PBS-T, and an anti-American hamster-Alexa594 antibody was added to 0.3 PBS-T to allow a secondary reaction with the anti-PECAM-1 antibody at 4° C. for 12 hours. The sample was washed 6 times for 10 minutes, attached to a slide glass, and thus image of the stained sample was obtained by a Carl Zeiss LSM710 confocal microscope. […] The measured fluorescent density denotes a density of endothelial cells, that is, blood vessels. […]

The subject of experiment [2] is C57BL/6 mice. The experiment in a line: Fluorescein-lectin tracking and immunohistochemical assay on pancreas section. Format: in vivo, mouse. Particulars: old mice, 2.0 mg/kg/d for 3 months. As to the method: as §1
(§2) After 3 months, ear skin from both ears, trachea, both retinas, both kidneys, and pancreas were obtained from a mouse selected from each group of mice. In order to obtain these organs, the mouse was anesthetized by intraperitoneal injection of 100 mg/kg of […] (Entobal®) based on the weight of the mouse, […] of 1% paraformaldehyde was flowed through the heart to remove the blood in the body of the mouse. The organs were surgically obtained, and tissue from each of the organs was fixed in 4% of paraformaldehyde for 24 hours to prepare a frozen section having a thickness of 10 um. Immunofluorescence staining using anti-PECAM-1 antibody was performed on a sample of the frozen section. […] The measured fluorescent density denotes a density of endothelial cells, that is, blood vessels. […]

Experiment [3] concerns C57BL/6 mice. In words: Immunohistochemical assay (anti-PECAM-1) on trachea whole-mount of mouse. The experiment is classed as in vivo. As to the method: as §1
After 3 months, ear skin from both ears, trachea, both retinas, both kidneys, and pancreas were obtained from a mouse selected from each group of mice. In order to obtain these organs, the mouse was anesthetized by intraperitoneal injection of 100 mg/kg of […] (Entobal®) based on the weight of the mouse, […] of 1% paraformaldehyde was flowed through the heart to remove the blood in the body of the mouse. The organs were surgically obtained, and tissue from each of the organs was fixed in 4% of paraformaldehyde for 24 hours to prepare a frozen section having a thickness of 10 um. Immunofluorescence staining using anti-PECAM-1 antibody was performed on a sample of the frozen section. For the immunofluorescence staining, the sample was blocked in a solution containing 5% donkey serum in phosphate buffered solution (PBS) containing 0.3% Triton-X 100 (0.3% PBST) for 1 hour. The anti-PECAM-1 antibody produced from American hamster was added to the solution to allow a primary reaction with antigen of the tissue at 4° C. for 12 hours. The sample was washed 6 times for 10 minutes with 0.3% PBS-T, and an anti-American hamster-Alexa594 antibody was added to 0.3 PBS-T to allow a secondary reaction with the anti-PECAM-1 antibody at 4° C. for 12 hours. The sample was washed 6 times for 10 minutes, attached to a slide glass, and thus image of the stained sample was obtained by a Carl Zeiss LSM710 confocal microscope. Each of the images was sequentially taken with respect to the tissue having a thickness in a range of about 100 um to about 300 um as an axis, and then all the sub-images were projected in a z-axis direction. Thus the image is a projection image. Platelet endothelial cell adhesion molecule (PECAM-1) is also referred to as cluster of differentiation 31 (CD31), which is found in platelets or monocytes and on a surface of some types of T-cells, and constitutes most of endothelial cell intercellular junction. […] The measured fluorescent density denotes a density of endothelial cells, that is, blood vessels. Also, in terms of kidney tissue sections and pancreas tissue section, Fluorescein labeled Lycopersicon esculentum (tomato) lectin (hereinafter, also referred to as “Fluorescein-lectin”) was used as a tracer to verify blood vessel functionality of the sample. […]

The subject of experiment [4] is C57BL/6 mice. The experiment in a line: Fluorescein-lectin tracking and immunohistochemical assay on kidney section. The experiment is classed as in vivo, mouse. The note with it: old mice, 2.0 mg/kg/d for 3 months. Here is the method:
as §1, §2

The subject of the next experiment is VEGFR2. In words: Phosphorylation-specific antibody array of soleus muscle protein. The experiment is classed as in vivo, mouse. Particulars: 20 month-old C57BL/6J mice, 2.0 mg/kg/d for 3 months. Here is the method: In FIG. 10, a vertical axis denotes the amount of protein expressed in the experimental group compared to the control group (fluorescent intensity: arbitrary unit), and a horizontal axis denotes the type of phosphorylated protein measured, where the description in parentheses informs residue and location of the phosphorylated amino acid. […] The microarray analysis was performed by using a Phospho Explorer Antibody array (1312 antibodies, FULL MOON Biosystems), soleus muscle of the mice was obtained, protein was isolated therefrom, and used for the microarray analysis. In FIG. 10, p-VR1 and p-VR2 respectively denote phosphorylated VEGFR1 and VEGFR2.

A further experiment has as its system Tie2. The experiment in a line: Microarray analysis of gene expression in soleus muscle (Tie2). Format: in vivo, mouse. Particulars: middle (15 month-old) and old (20 month-old) mice, 2.0 mg/kg/d for 3 months. As to the method:
(§3) In FIG. 9, a vertical axis denotes an expression amount of VEGF or Tie2 gene (fluorescent intensity: arbitrary unit), and a horizontal axis denotes a mouse subject. […] The microarray analysis was performed by using Agilent's Mouse Oligo Microarray (44K, Agilent Technology). 5 months-old, 15 months-old, and 20 months-old C57BL/6J mice had 2 mg/kg/d of dapsone for 3 months. […] After the 3 months, the 8 months-old, 18 months-old, and 23 months-old mice were anesthetized by injecting Entobar (sodium pentobarbital, 100 mg/kg per body weight), and then soleus muscle taken therefrom for microarray analysis was frozen. Ribonucleic acid was isolated from the muscle and used for the microarray analysis.

The next experiment relates to VEGF. In words: Microarray analysis of gene expression in soleus muscle (VEGF). The experiment is classed as in vivo, mouse. Particulars: middle (15 month-old) and old (20 month-old) mice, 2.0 mg/kg/d for 3 months. Here is the method:
as §3

[5] abbreviates: old mice (27 months-old), 2.0 mg/kg/d for 3 months (O2 vs O0).

In the case of `Nc1ccc(S(=O)(=O)c2ccc(N)cc2)cc1` [dapsone, 4-[(4-aminobenzene)sulfonyl]aniline], the “blood vessel density (PECAM-1 Alexa 594 fluorescence intensity) vs control group” value with C57BL/6 mice [1] (setting [5]) was “significant difference”; with C57BL/6 mice [1] (young mice (7 months-old), 0.5 mg/kg/d for 3 months (Y0.5 vs Y0)), “no significant difference”; with C57BL/6 mice [1] (young mice (7 months-old), 2.0 mg/kg/d for 3 months (Y2 vs Y0)), “no significant difference”; in the experiment with C57BL/6 mice [3] (old mice (27 months-old), 0.5 mg/kg/d for 3 months (O0.5 vs O0)), “significant difference”; in the experiment on C57BL/6 mice [3] (setting [5]), “significant difference”; with C57BL/6 mice [3] (young mice (7 months-old), 0.5 mg/kg/d in drinking water for 3 months (Y0.5 vs Y0)) it was “no significant difference”. Besides, the “blood vessel density (PECAM-1 Alexa 594 fluorescence intensity) vs control group” value in the experiment on C57BL/6 mice [3] (young mice (7 months-old), 2.0 mg/kg/d in drinking water for 3 months (Y2 vs Y0)) is given as “no significant difference”. In addition, the “amount of blood vessels with decreased functionality (Fluorescein-lectin negative)” value in the experiment on C57BL/6 mice [2] is given as “reduced”. In addition, the “blood vessel functionality (Fluorescein-lectin perfusion of PECAM-1 positive vessels)” value in the experiment on C57BL/6 mice [4] was “recovered to the similar level of the control group”. In addition, in the experiment with VEGFR2, the “phosphorylation of VEGFR2 at T1175, T1059 and T1054 vs control group” value was “significantly increased phosphorylation”. Further, in the experiment with Tie2, the “level of Tie2 gene expression vs control groups” value is “did not change significantly”. Moreover, in the experiment with VEGF, the “expression of VEGF gene vs control groups” value is recorded as “increased”.
